Data as given in patent US4372953A, “Tetrazole derivatives, and anti-ulcer composition containing the same” (Otsuka Pharmaceutical Company, Limited, priority 1980, dated 1983).
Read-outs that look alike come from different tables or passages of the source.

Experiments:
[1] = Acute toxicity (LD50, p.o.); conditions: rat, in vivo; oral, male Wistar rats
Protocol: The test compounds were orally administered to male Wistar rats, and the half lethal dose (LD50) was measured.

gastric juice secretion = experiment: Shay rat pylorus ligation method (gastric juice secretion-inhibiting activity); format: in vivo, male Wistar rats; conditions: 4 hours after ligation; for inhibition in vivo at 200 mg/kg / inhibition in vivo at 100 mg/kg: Rattus norvegicus, 4 h; for inhibition in vivo at 200 mg/kg: sc, subcutaneous route
Protocol: The pharmacological activities of the compounds (1) were tested by a Shay rat pylorus ligation method (cf. H. Shay et al: Gastroenterol., Vol. 5, page 43, 1945) which is the most popular method for testing of gastric juice secretion-inhibiting activity. The test was carried out by using male Wistar rats, weighing about 170 g and fasting for 24 hours.
Test compounds were administered 30 minutes before the pylorus ligation in a dose of 100 mg/kg in subcutaneous route in case of test compounds 37, 38, 50, 51 and 52, in a dose of 200 mg/kg in subcutaneous route in case of test compounds 105 and 106 and in dose of 100 mg/kg in duodenal route in case of other test compounds, and the volume, total acidity and pepsin activity of the gastric juice were measured 4 hours after the ligation. As a control, a saline solution was administered instead of the test compound. The inhibitory ratio (%) of the test compounds were calculated when the inhibitory activities of the control were counted as zero (0).
(§1) In the table, the inhibitory ratio (%) was evaluated as follows: […]

[2] = test system: indomethacin-induced ulcer; experiment: Indomethacin-induced ulcer; format: in vivo, male Wistar rats; conditions: Rattus norvegicus, 5 h, oral, 30 minutes before indomethacin 20 mg/kg s.c., read-out: Inhibitory ratio of indomethacin-induced ulcer
Protocol: After male Wistar rats weighing about 160 g was fasted for 24 hours, indomethacin was subcutaneously administered to the rats in a dose of 20 mg/kg in the form of a suspension in a mixture of 0.5% CMC and a small amount of Tween 80 (i.e. polyoxyethylene sorbitan monooleate). After 5 hours, the rats were killed and the stomach was isolated. Into the isolated stomach 10% formalin (8 ml) was poured and settled. The stomach was cut open at the greater curvature, and the length of each ulcer on the membrane was measured, based on which results the inhibitory ratio of the indomethacin-induced ulcer of the test compounds was calculated in the same manner as in Pharmacological Test 2. The test compound was orally administered to the rats in a dose of 100 mg/kg in the form of 0.5% CMC suspension 30 minutes before the administration of indomethacin.
as §1

stress ulcer = experiment: Stress ulcer (restraint and water immersion); format: in vivo, male Wistar rats; conditions: Rattus norvegicus, po, 7 h, read-out: Inhibitory ratio of stress ulcer; for inhibition in vivo at 300 mg/kg: 0.5% CMC suspension; for inhibition in vivo: concentration of 1×10^-3 mole
Protocol: After male Wistar rats weighing about 170 g was fasted for 24 hours, the rats were restrained in a stress cage and dipped in water bath at 23° C. till chest of the animals. After 7 hours, the rats were killed and the stomach was isolated. Into the isolated stomach 10% formalin (8 ml) was poured and settled. The stomach was cut open at the greater curvature, and the length of each ulcer on the membrane was measured. Sum of the length of all ulcers was shown as ulcer index (UI). The test compound was orally administered to the rats before restraint in a stress cage in a dose of 300 mg/kg in the form of 0.5% CMC suspension in case of test compounds 3, 4, 6, 15 and 27 and in a concentration of 1×10^-3 mole in case of other test compounds. As a control, only the solvent (CMC solution) was administered likewise. The inhibitory ratio (%) of stress ulcer of the test compounds was calculated by the following equation: [formula]
as §1

[3] = read-out: Inhibitory ratio, pepsin activity
[4] = read-out: Inhibitory ratio, total acidity
[5] = read-out: Inhibitory ratio, volume of gastric juice
[6] = 100 mg/kg, duodenal route, read-out: Inhibitory ratio, pepsin activity
[7] = 100 mg/kg, duodenal route, read-out: Inhibitory ratio, total acidity
[8] = 100 mg/kg, duodenal route, read-out: Inhibitory ratio, volume of gastric juice
[9] = 100 mg/kg, duodenal route, star-marked compounds, read-out: Inhibitory ratio, total acidity
[10] = 100 mg/kg, duodenal route, star-marked compounds, read-out: Inhibitory ratio, volume of gastric juice
[11] = 100 mg/kg, duodenal route, star-marked compounds, read-out: Inhibitory ratio, pepsin activity

Structure (SMILES)	inhibition in vivo at 100 mg/kg [2] [%]	inhibition in vivo at 100 mg/kg (gastric juice secretion; [8]) [%]	inhibition in vivo (stress ulcer) [%]	other results
CCN(C(=O)CCCn1nnnc1C)C1CCCCC1 [Test compound 106, N-Ethyl-N-cyclohexyl-4-(5-methyl-1,2,3,4-tetrazol-1-yl)butyramide]	30 to 60			LD50 [1]: > 500 mg/kg; inhibition in vivo at 200 mg/kg (gastric juice secretion; [3]): 10 to 50%; inhibition in vivo at 200 mg/kg (gastric juice secretion; [4]): 10 to 50%; inhibition in vivo at 200 mg/kg (gastric juice secretion; [5]): 10 to 50%
Br.CNC(=N)SCCCCSc1nnnn1C [Test compound 27, 1-Methyl-2-[4-(1-methyl-1,2,3,4-tetrazol-5-yl)thiobutyl]isothiourea hydrobromide]				Inhibitory ratio, volume of gastric juice (gastric juice secretion; 100 mg/kg, duodenal route): + +; inhibition in vivo at 300 mg/kg (stress ulcer): > 60%
Cn1nnnc1SCCCC(=O)Cc1ccccc1 [Test compound 57, 1-Methyl-5-(3-benzylcarbonylpropyl)thio-1,2,3,4-tetrazole]		> 50	> 60	inhibition in vivo at 100 mg/kg (gastric juice secretion; [6]): 10 to 50%; inhibition in vivo at 100 mg/kg (gastric juice secretion; [7]): 10 to 50%
CCSCCCSc1nnnn1C [Test compound 7, 1-Methyl-5-(3-ethylthiopropyl)thio-1,2,3,4-tetrazole]		> 50	> 60	LD50 [1]: > 500 mg/kg
CCN(CC)CCCSc1nnnn1C [Test compound 84, 1-Methyl-5-[3-(N,N-diethylamino)propyl]thio-1,2,3,4-tetrazole]	> 60	10 to 50	> 60	inhibition in vivo at 100 mg/kg (gastric juice secretion; [6]): 10 to 50%; inhibition in vivo at 100 mg/kg (gastric juice secretion; [7]): 10 to 50%
Cn1nnnc1SCCCSC1CCCCC1 [Test compound 3, 1-Methyl-5-(3-cyclohexylthiopropyl)thio-1,2,3,4-tetrazole]	30 to 60			inhibition in vivo at 100 mg/kg (gastric juice secretion; [9]): > 60%; inhibition in vivo at 100 mg/kg (gastric juice secretion; [10]): > 60%; inhibition in vivo at 300 mg/kg (stress ulcer): > 60%
Cc1nnc(SCCCSc2nnnn2C)o1 [compound 4]	> 60			LD50 [1]: > 500 mg/kg; inhibition in vivo at 100 mg/kg (gastric juice secretion; [11]): 30 to 60%; inhibition in vivo at 100 mg/kg (gastric juice secretion; [9]): > 60%; inhibition in vivo at 100 mg/kg (gastric juice secretion; [10]): > 60%; inhibition in vivo at 300 mg/kg (stress ulcer): > 60%
Cc1ncsc1C(=O)CCCSc1nnnn1C [Test compound 80, 1-Methyl-5-[3-(4-methyl-5-thiazolyl)carbonylpropyl]thio-1,2,3,4-tetrazole]		> 50	> 60	
CC(CSc1ccccn1)CSc1nnnn1C (centres unmarked) [Test compound 34, 1-Methyl-5-[2-methyl-3-(2-pyridyl)thiopropyl]thio-1,2,3,4-tetrazole]		> 50	> 60	
Cn1nnnc1SCCCC(=O)c1ccco1 [Test compound 55, 1-Methyl-5-[3-(2-furoyl)propyl]thio-1,2,3,4-tetrazole]		> 50	30 to 60	inhibition in vivo at 100 mg/kg (gastric juice secretion; [6]): 10 to 50%; inhibition in vivo at 100 mg/kg (gastric juice secretion; [7]): > 50%
Cn1nnnc1SCCSc1ccccn1 [Test compound 31, 1-Methyl-5-[2-(2-pyridyl)thioethyl]thio-1,2,3,4-tetrazole]		> 50	> 60	
Cn1nnnc1SCCCC(=O)c1ccccc1 [Test compound 53, 1-Methyl-5-(3-benzoylpropyl)thio-1,2,3,4-tetrazole]	> 60			
CC(=O)CSc1nnnn1C [Test compound 67]	> 60			LD50 [1]: > 500 mg/kg
Cn1nnnc1SCCCC(=O)c1ccccn1 [Test compound 74, 1-Methyl-5-[3-(2-pyridyl)carbonylpropyl]thio-1,2,3,4-tetrazole]		> 50	> 60	
CCN(CC)C(=O)CCCn1nnnc1C [Test compound 105, N,N-Diethyl-4-(5-methyl-1,2,3,4-tetrazol-1-yl)butyramide]	30 to 60		> 60	LD50 [1]: > 500 mg/kg; inhibition in vivo at 200 mg/kg (gastric juice secretion; [3]): 10 to 50%; inhibition in vivo at 200 mg/kg (gastric juice secretion; [4]): 10 to 50%; inhibition in vivo at 200 mg/kg (gastric juice secretion; [5]): 10 to 50%
CC(CSc1nnnn1C)CSc1nnnn1C [Test compound 9, 1-Methyl-5-[2-methyl-3-(1-methyl-1,2,3,4-tetrazol-5-yl)thiopropyl]thio-1,2,3,4-tetrazole]	> 60			
Cn1nnnc1SCCCCCSc1nnnn1C [Test compound 5, 1-Methyl-5-[5-(1-methyl-1,2,3,4-tetrazol-5-yl)thiopentyl]thio-1,2,3,4-tetrazole]	> 60		> 60	inhibition in vivo at 100 mg/kg (gastric juice secretion; [11]): 30 to 60%; inhibition in vivo at 100 mg/kg (gastric juice secretion; [9]): > 60%; inhibition in vivo at 100 mg/kg (gastric juice secretion; [10]): > 60%
Cn1nnnc1SCCC[S+]([O-])c1ccccn1 (centres unmarked) [Test compound 44, 3-(1-Methyl-1,2,3,4-tetrazol-5-yl)thiopropyl 2-pyridyl sulfoxide]		> 50	> 60	LD50 [1]: > 500 mg/kg
Cn1nnnc1SCCCCCCSc1ccccn1 [Test compound 33, 1-Methyl-5-[6-(2-pyridyl)thiohexyl]thio-1,2,3,4-tetrazole]		10 to 50	> 60	
Cn1nnnc1SCCCC[S+]([O-])c1nnnn1C (centres unmarked) [Test compound 46, 4-(1-Methyl-1,2,3,4-tetrazol-5-yl)thiobutyl 1-methyl-1,2,3,4-tetrazol-5-yl sulfoxide]		10 to 50	> 60	
Cn1nnnc1SCCCNC(=O)c1ccccc1 [Test compound 88, 1-Methyl-5-(3-benzoylaminopropyl)thio-1,2,3,4-tetrazole]		> 50	> 60	
Cn1nnnc1SCCCSc1ccccn1 [compound 2]			> 60	inhibition in vivo at 100 mg/kg (gastric juice secretion; [11]): 30 to 60%; inhibition in vivo at 100 mg/kg (gastric juice secretion; [9]): > 60%; inhibition in vivo at 100 mg/kg (gastric juice secretion; [10]): > 60%
Cn1nnnc1SCCCSCc1csc(N)n1 [Test compound 17, 1-Methyl-5-[3-(2-amino-4-thiazolyl)methylthiopropyl]thio-1,2,3,4-tetrazole]		10 to 50	> 60	
